Laboratory results taken from patent publication US8980933B2, “Combretastatin analogs for use in the treatment of cancer” (Universitat Bayreuth, priority 2010, dated 2015).
Values joined by “and” are separate entries in the source; they are usually repeats but may differ in a detail not shown here. Identical values can stand only once. “Also recorded” adds a separate entry of the source.

Key:
Solubility in water = assay type: physicochemical
[1] = system: 1411HP germ cell tumor xenografts; test: Nude mouse xenograft model of resistant 1411HP; assay type: in vivo; conditions: for intra-tumoral hemorrhage (vascular disrupting effect): after 24 h
Description: In vivo antitumor activity and tolerability of compounds 5b and 6b of the invention were studied in a nude mouse xenograft model of the resistant germ cell tumor cell line 1411HP employing Athymic Nude-Fox n1 nu/nu mice (Harlan und Winkelmann, Borchen, Germany).
The tests were carried out as follows. The mice were kept under pathogen-free conditions, fed on an autoclaved standard diet and given free access to sterilized water. Each of five mice were administered a 150 μL phosphate buffered saline suspension of 10 million 1411HP cells into the left flank to generate subcutaneous xenograft tumors. After 4 weeks one group of two mice bearing 1411HP xenografts with a volume of ca. 1 cm^3 were injected i.p. with a single dose of 30 mg/kg body weight of 5b or 6b, respectively. Two mice in the second group with xenografts of a volume of ca. 2.5 cm^3 were injected i.p. with 20 mg/kg body weight of 5b on two consecutive days. Tumor volumes were calculated by caliper measurement using the formula a^2×b×0.5 with a being the short and b the long dimension. Body weight was assessed twice weekly and daily while under therapy.

[2] = system: KB-V1/Vbl cervical carcinoma cells; test: MTT cell growth inhibition, KB-V1/Vbl; assay type: cell-based, human; conditions: Pgp-overexpressing KB-V1 cells
Description: The MCF-7/Topo cells were grown in E-MEM medium (Sigma) supplemented with 2.2 g/L NaHCO3, 110 mg/L sodium pyruvate and 5% FCS. The cells were maintained in a moisture-saturated atmosphere (5% CO2) at 37° C. in 75-mL culture flasks (Nunc, Wiesbaden, Germany). They were serially passaged following trypsinisation by 0.05% trypsin/0.02% EDTA (PAA laboratories, Clbe, Germany). Mycoplasma contamination was routinely monitored, and only mycoplasma-free cultures were used.
HL-60 leukemia cells (5×10^5/mL), and cells (5×10^4/mL) of 518A2 melanoma, HT-29 colon, KB-V1/Vbl cervix and MCF-7/Topo breast carcinoma were seeded out in 96-well tissue culture plates and cultured for 24 h. […] Blank and solvent controls were treated identically. MTT in phosphate buffered saline (5 mg/mL) was added to a final concentration of 0.05% (HL-60, 518A2) or 0.1% (HT-29, KB-V1/Vbl, MCF-7/Topo). After 2 h the formazan precipitate was dissolved in 10% sodium dodecylsulfate in DMSO containing 0.6% acetic acid in the case of the HL-60 cells. For the adherent 518A2, KB-V1/Vbl, MCF-7/Topo and HT-29 cells the microplates were swiftly turned to discard the medium before adding the solvent mixture. The microplates were gently shaken in the dark for 30 min and absorbance at 570 nm and 630 nm (background) was measured with an ELISA plate reader. All experiments were carried out in quadruplicate; the percentage of viable cells was calculated as the mean±SD with controls set to 100%.

HL-60 cells = test: ROS generation, NBT assay, HL-60; assay type: cell-based, human; conditions: 50 μM, relative to untreated controls (1%), mean ± SD
Description: The generation of reactive oxygen species (ROS) in tumor cells is a sign of cellular stress resulting in severe damage of cellular components such as DNA, lipids or proteins.
For the NBT assay, HL-60 cells (0.5·10^6/mL) were plated in 96-well tissue culture plates, and test compounds were added after 24 h incubation at 37° C. to achieve a final concentration of 50 μM. […] After removal of the cell medium by centrifugation, the cells in each well were resuspended in 100 μL 0.1% NBT, and the plates were placed in the incubator for 1 h. The reduced NBT was solubilized with 100 μl 2 M KOH and 130 μl DMSO for 30 min. The absorbance was measured for each well at 630 and 405 nm (background) using an ELISA plate reader. The adherent 518A2 cells (0.5·10^4/mL) were seeded out in 96-well tissue culture plates after trypsinization and incubation for 24 h at 37° C. to allow attachment, then treated similarly, only that the medium was removed prior to incubation with NBT for 4 h. All experiments were carried out in quadruplicate.

[3] = dual-dose i.p. 20 mg/kg on two consecutive days
[4] = single dose 30 mg/kg i.p., xenografts ca. 1 cm3

| SMILES | solubility (Solubility in water) [µg/mL] | vascular disrupting effect ([1]; 1411HP xenograft model) | tumor response [1, 3] | tolerability ([1]; single dose 30 mg/kg i.p.) | intra-tumoral hemorrhage (vascular disrupting effect) [1, 4] | tumor response [1, 4] | IC50 concentration [2] | NBT Reduction [%] in HL-60 cells after 24 h (HL-60 cells) | duration of tumor volume stabilization ([1]; single dose application) | tolerability of repeated applications ([1]; third course of double dose 20 mg/kg i.p.) | tumor response to repeated applications ([1]; three double doses of 20 mg/kg i.p. (further on days 16/17 and 35/36)) |
| --- | --- | --- | --- | --- | --- | --- | --- | --- | --- | --- | --- |
| COc1ccc(-c2c(-c3cc(Br)c(OC)c(OC)c3)ncn2C)cc1N [compound 6b, 1-methyl-5-(3-amino-4-methoxyphenyl)-4-(3-bromo-4,5-dimethoxyphenyl)-imidazole] | > 10000 | vascular disrupting activity; also recorded: vascular disrupting in tumor xenografts | high antitumor activity to a similar extent as compound 5b | tolerated this treatment very well | strong intra-tumoral hemorrhage | transient swelling of the tumors, eventually followed by regression and slow regrowth | single-digit nanomolar range | 3.8 ± 0.3% | – | – | – |
| COc1ccc(-c2c(-c3cc(Cl)c(OC)c(OC)c3)ncn2C)cc1N [compound 5b, 1-methyl-5-(3-amino-4-methoxyphenyl)-4-(3-chloro-4,5-dimethoxyphenyl)-imidazole] | > 10000 | – | dramatic tumor regressions, leading even to a stabilization in one case | tolerated this treatment very well | strong intra-tumoral hemorrhage | transient swelling of the tumors, eventually followed by regression and slow regrowth | single-digit nanomolar range | 4.4% and 4.4 ± 0.6% | stabilize the tumor volume for about two weeks | well tolerated | regressions and prolonged periods of stabilization following each of the three applications |
